Source: patent US20210156844A1, “TMEM16A Modulation for Diagnostic or Therapeutic Use in Pulmonary Hypertension (PH)” (Bayer Aktiengesellschaft, priority 2017, published 2021)

Test system: PASMC
Assay: Membrane potential (Em) measurement, current clamp, primary PASMC
Type: cell-based, human
Conditions: BBR 30 μM, T16Ainh-A01 10 μM
Procedure: PASMC were grown on glass coverslips and serum starved for 24-48 hours. The coverslips were perfused with a bath solution composed of (in mM) NaCl 141, KCl 4.7, HEPES 10, glucose 10, CaCl2 1.8, MgCl2 1.2, pH 7.4 (NaOH) at room temperature. Micropipettes were pulled of borosilicate glass capillaries (GC150F-10, Harvard Apparatus Ltd, Edenbridge, Kent, UK) with a P-2000 electrode puller (Sutter Instruments, Novato Ca, USA), and fire polished using a micro-forge (MF-830, Narishige, Tokyo, Japan) to give a final resistance of 3-5 MΩ when filled with the pipette solution (composition in mM: NaCl 10, KCl 125, K2ATP 5, HEPES 10, EGTA 5, MgCl2 4, pH set to 7.2 with KOH). Em was measured with a HEKA EPC10 patch clamp amplifier (Dr. Schulze GmbH, Lambrecht, Germany) in the current clamp mode as described by others (Mason, M J, et al., Biophys. J. (2005) 88, 739-750; Perkins, KL, J. Neurosci. Methods (2006) 154, 1-18).
The liquid junction potential was calculated with the Clampex 10.0 software (Molecular Devices, Sunnyvale Calif., USA) and an online correction was made for each recording. Both at baseline and during perfusion with 30 μM benzbromarone (BBR, Sigma, St Louis Mo., USA) or 10 μM T16Ainh-A01 (Tocris, Bristol, UK), only those recordings in which (1) the Em was constant for at least 3 minutes, and (2) the seal resistance was constantly high (>5 GΩ) were used for the analyses.
The HEK-293 cells were transfected overnight either with the CLCA1 gene containing or with the empty plasmid, using the Effectene transfection reagent kit (Qiagen) and DMEM F-12 complete medium. On the next day, the medium was changed to serum-free SMC Medium. The resulting conditioned media were collected 24 hours later and applied on the PASMC of healthy donors. After 24 hours of incubation, the Em of the PASMC was measured as described above. To confirm the presence of CLCA1 in the conditioned medium, 20 μL of conditioned medium as well as control medium (collected from cells transfected with the empty plasmide) were analyzed with western blot as described above, using a CLCA1 antibody (ab108851, Abcam).

## CCc1oc2ccccc2c1C(=O)c1cc(Br)c(O)c(Br)c1 [benzbromarone, (2-Ethyl-3-benzofuranyl)-(3,5-dibrom-4-hydroxyphenyl)ketone]
PASMC of IPAH patients
  reversal of the Em of IPAH-PASMC to the levels of PASMC isolated from healthy donors: completely
PASMC of healthy donors
  effect on Em of PASMC of donors: no effect
